In patent US20250154220A1, “INSULIN ANALOGS FOR THE TREATMENT OF HUMAN METABOLIC DISORDER AND DISEASE” (Ambio, Inc., priority 2023, published 2025):
Entries after “also recorded” stand apart in the source; their conditions may differ.

Key:
Sprague-Dawley (SD) rats [1] = assay: Glucose levels in non-fasted Sprague-Dawley rats after subcutaneous injection; assay type: in vivo; settings: for duration of decrease in glucose levels compared to rats injected with Degludec: over 120 hours; for glucose area under the curve (AUC) values: FIG. 9 (0-96 hour) and FIG. 15 (0-72 hour)
Description: (§1) Male Sprague-Dawley (SD) rats at the age of 8-10 weeks old were administered a dose of 175 nmol-200 nmol insulin analogs 1, 2, 3, 4, APi3545, APi3546, APi3547, and APi3549 through subcutaneous injection. Insulin Degludec was used as a positive control. A vehicle control consisted of glycerol (19.6 mg), metacresol (1.72 mg), phenol (1.50 mg), zinc acetate ([…]), and WFI to 1 mL.

Sprague-Dawley (SD) rats [2] = assay: c-peptide levels in non-fasted Sprague-Dawley rats after subcutaneous injection; assay type: in vivo; settings: 175 nmol-200 nmol s.c.; for duration of c-peptide level compared to rats injected with Degludec: over 120 hours
Description: as §1

ICR mice [3] = assay: Biopotency in ICR mice against insulin reference standard, chapter <1211> of Chinese Pharmacopeia (blood glucose 40 min after injection); assay type: in vivo; settings: low and high dosing solutions 0.05 and 0.1 IU/mL, blood 40 minutes after administration, FIG. 7
Description: The biopotency of the eight insulin analogs was determined by comparison with the insulin reference standard following chapter <1211> of Chinese Pharmacopeia. In particular, the insulin analogs and insulin reference standard were prepared with either diluent 1 or diluent 2. Diluent 1 comprises 0.9% sodium chloride at a pH of 2.5 (adjusted with HCl) and 0.2% phenol. Diluent 2 comprises 0.9% sodium chloride at a pH of 2.5 (adjusted with HCl). The insulin reference standard (27.2 IU/mg) and the insulin analogs (calculated as 25 IU/mg) were prepared with diluent 1. In addition, low- and high-dosing solutions (0.05 IU/mL and 0.1 IU/mL, respectively) of insulin reference standard and test analogs were prepared with diluent 2. Following chapter <1211> of Chinese Pharmacopeia, ICR mice (25-28 g, 6 animals per group) were injected with 0.2-0.3 mL of low and high dosing solution of the eight insulin analogs and insulin standard. Low and high doses of insulin standard and insulin analogs were administered to the mice following parallel design/protocol. […] The glucose concentration of each blood sample was determined by the glucose oxidase-peroxidase method (Roche blood glucose test strips). […] FIG. 6 summarizes the relative biopotency of the insulin analogs by comparing the calculated biopotency and measured biopotency.

[4] = Body weight of non-fasted Sprague-Dawley rats after subcutaneous injection; assay type: in vivo; settings: SD rats, over 120 hours, FIG. 13 and FIG. 16
Description: as §1

[5] = Body weight of db/db mice measured daily for 3 days after single subcutaneous dose; assay type: in vivo; settings: Day 1-3, 1.5 IU/mg Degludec, all dose levels of Analog #1, FIGS. 3A-3B
Description: (§2) Accordingly, the ability of insulin analog 1 (FIG. 1A) to control the glucose profile in a db/db type II diabetes model was tested. As a control, wild type m/m mouse strain was included in the study. Mice were male, between ages 6-8 weeks, and the total group size was 8. The insulin analogs were delivered as a subcutaneous single dose. The dose volume was 5 mL/Kg ([…] per 25 g mouse). Mice were injected at the following dose levels: Degludec 1.5 IU/kg (model) and insulin analog #1 (FIG. 1A) at 0.04 mg/kg, 0.12 mg/kg, or 0.36 mg/kg. All insulin compounds (Degludec and analog #1) were diluted with 0.9% sodium chloride (vehicle, normal saline). Vehicle controls were comprised of 0.9% sodium chloride.
(§3) Blood collection for glucose plasma concentration measurements occurred at Oh (0-60 min before dosing), 0.5 h, 1 h, 2 h, 4 h, 6 h, 8 h, 10 h, 12 h, 18 h, 24 h, 30 h after the single dose. Moreover, the mouse body weight was measured daily for 3 days.

IGF-1R = target: T1, IGF-1R (Homo sapiens, UniProt P08069); assay: IGF-1R activation in IGF-1R (Luc) HEK293 reporter cells; assay type: cell-based; settings: up to 4 μg/mL (1.6 μM) concentration
T1 construct: expressed in transfected cells; host or cells: IGF-1R (Luc) HEK293 reporter cells
Text: Insulin-like growth factor (IGF-1R) is a tyrosine kinase type receptor that regulates cell growth and proliferation and can be activated by IGF-1, IGF-2, and insulin. […]

db/db mice = assay: Glucose profile after single subcutaneous dose in db/db type II diabetes mouse model; assay type: in vivo
Text: Murine db/db murine strain is a well-accepted type II diabetes model that recapitulates most aspects of human type II diabetes. In particular, db/db mice carry mutations in the leptin receptor that lead to obesity, decreased insulin receptor sensitivity, and subsequent increased levels of blood glucose, decreased β-cell function, and elevated HBA1c levels. Like human Type II diabetes, the diabetic condition in db/db mice is progressive. Animals have near normal or slightly elevated plasma glucose (PG) and relatively normal β-cell function at 6 weeks of age. Fasting plasma glucose (FPG) levels gradually elevate over several weeks and β-cell function declines such that by about 16 weeks of age FPG is very high (>400 mg/dL) and j-cell function has entirely degenerated. The db/db mouse model may be used in an acute setting but is more typically used in a chronic setting to evaluate a test compound's cumulative action over several weeks of treatment. The variability is reasonably low such that good statistically significant effects are seen with validating compounds with group sizes of about 8 animals.
as §2, with “Mice were injected at the following dose levels: Degludec 1.5 IU/kg (model) and insulin analog #1 (FIG. 1A) at 0.04 mg/kg, 0.12 mg/kg, or 0.36 mg/kg.” left out
as §3

ICR mice [6] = settings: reference standard as labelled; cited from earlier work
[7] = SD rats, 175 nmol-200 nmol s.c.

T1 sequence (P08069 31-736 limits assumed): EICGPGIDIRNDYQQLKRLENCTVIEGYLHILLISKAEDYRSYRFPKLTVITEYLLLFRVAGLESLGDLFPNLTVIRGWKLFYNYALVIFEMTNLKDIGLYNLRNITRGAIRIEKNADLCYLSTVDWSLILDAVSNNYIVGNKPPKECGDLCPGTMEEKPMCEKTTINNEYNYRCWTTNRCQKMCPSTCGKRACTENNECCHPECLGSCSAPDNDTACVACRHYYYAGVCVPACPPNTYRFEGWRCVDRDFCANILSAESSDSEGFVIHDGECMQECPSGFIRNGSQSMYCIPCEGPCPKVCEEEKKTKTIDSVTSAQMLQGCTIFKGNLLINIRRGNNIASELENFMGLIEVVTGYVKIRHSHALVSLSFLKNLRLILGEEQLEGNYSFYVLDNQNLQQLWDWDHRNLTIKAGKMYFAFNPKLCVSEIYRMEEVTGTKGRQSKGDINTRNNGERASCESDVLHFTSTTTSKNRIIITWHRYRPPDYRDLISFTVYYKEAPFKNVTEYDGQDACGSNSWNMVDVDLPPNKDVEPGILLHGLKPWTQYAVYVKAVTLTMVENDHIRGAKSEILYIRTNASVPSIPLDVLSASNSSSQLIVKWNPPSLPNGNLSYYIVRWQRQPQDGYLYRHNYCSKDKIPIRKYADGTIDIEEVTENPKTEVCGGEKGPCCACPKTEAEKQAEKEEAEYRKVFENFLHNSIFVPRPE
T1 sequence (P08069 741-1367 limits assumed): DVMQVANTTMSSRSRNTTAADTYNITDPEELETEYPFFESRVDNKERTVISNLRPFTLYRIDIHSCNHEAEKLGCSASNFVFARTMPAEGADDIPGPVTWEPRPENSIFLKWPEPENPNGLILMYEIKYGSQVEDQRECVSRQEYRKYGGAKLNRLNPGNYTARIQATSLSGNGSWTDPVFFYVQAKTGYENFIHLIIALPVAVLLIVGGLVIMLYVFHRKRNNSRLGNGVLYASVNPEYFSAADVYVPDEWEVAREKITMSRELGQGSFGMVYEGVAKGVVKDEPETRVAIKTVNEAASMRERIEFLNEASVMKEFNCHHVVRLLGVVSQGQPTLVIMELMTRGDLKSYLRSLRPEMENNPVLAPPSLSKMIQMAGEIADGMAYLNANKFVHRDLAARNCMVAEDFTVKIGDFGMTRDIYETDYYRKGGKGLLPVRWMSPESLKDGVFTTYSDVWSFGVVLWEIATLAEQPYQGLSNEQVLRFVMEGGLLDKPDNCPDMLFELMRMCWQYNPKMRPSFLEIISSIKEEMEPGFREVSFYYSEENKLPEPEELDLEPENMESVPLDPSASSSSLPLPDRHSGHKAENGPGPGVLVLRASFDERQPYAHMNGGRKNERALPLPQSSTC

| Substance | duration of decrease in glucose levels compared to rats injected with Degludec (Sprague-Dawley (SD) rats [1]; [7]) | duration of c-peptide level compared to rats injected with Degludec (Sprague-Dawley (SD) rats [2]) | rate of body weight increase compared to rats injected with Degludec [4] | glucose area under the curve (AUC) values (Sprague-Dawley (SD) rats [1]; SD rats) | also measured |
| --- | --- | --- | --- | --- | --- |
| APi3545: A-chain SEQ ID NO: 11 (A14 Aad), B-chain SEQ ID NO: 16 (B16 His(5-I), B25 Ala(4-thiazoyl)); structure FIG. 1H | longer lasting decrease in glucose levels | maintained the level of c-peptide for a longer time |  |  | duration of action among insulin analogs tested (Sprague-Dawley (SD) rats [1]; structure-activity relationship (Example 5)): most long-acting insulin analog tested; time undetectable c-peptide level was maintained (Sprague-Dawley (SD) rats [2]): up to 72 hours; glucose lowering effect / biopotency measured in ICR mice (ICR mice [3]): most active |
| APi3546: A-chain SEQ ID NO: 11 (A14 Aad), B-chain SEQ ID NO: 18 (B16 His(5-I), B25 3-Pal); structure FIG. 1I | longer lasting decrease in glucose levels | maintained the level of c-peptide for a longer time | lower rate of body weight increase |  |  |
| Degludec [reference compound] |  |  |  |  | effect on animal body weight [5]: no significant effect |
| insulin analog 1: A-chain SEQ ID NO: 3 (A14 Gla), B-chain SEQ ID NO: 4 (B16 and B25 His(3-Me)); structure FIG. 1A | longer lasting decrease in glucose levels | maintained the level of c-peptide for a longer time | lower rate of body weight increase |  | IGF-1R activation (IGF-1R; FIG. 19, listed as 1): none of insulin analogs 1, 2, 3, and 4 showed IGF-1R activation; also recorded: lack of IGF-1R activation; glucose profile compared to db/db vehicle control (db/db mice; 0.12 mg/kg, s.c. single dose, 2, 4, 6 and 8 hr time points, FIG. 2): statistically significantly lower; response (glucose level decrease) versus dose (db/db mice; 0.36 mg/kg, 0.12 mg/kg and 0.04 mg/kg doses): dose proportional; glucose profile compared to db/db vehicle control (db/db mice; 0.36 mg/kg, entire time course starting from 2 hr time point): statistically lower; glucose profile compared to db/db vehicle control (db/db mice; 0.36 mg/kg, s.c. single dose, 2, 4, 6 and 8 hr time points, FIG. 2): statistically significantly lower; effect on animal body weight [5]: no significant effect |
| insulin analog 2: A-chain SEQ ID NO: 3 (A14 Gla), B-chain SEQ ID NO: 6 (B16 and B25 Pal, B28 Pro); structure FIG. 1B |  | maintained the level of c-peptide for a longer time | lower rate of body weight increase | follow the order of their specific activities | IGF-1R activation (IGF-1R; FIG. 19, listed as 2): none of insulin analogs 1, 2, 3, and 4 showed IGF-1R activation; also recorded: lack of IGF-1R activation; duration of decrease in glucose levels compared to rats injected with Degludec (Sprague-Dawley (SD) rats [1]; SD rats, 175 nmol-200 nmol s.c., listed as 2): longer lasting decrease in glucose level; c-peptide lowering effect among analogs tested (Sprague-Dawley (SD) rats [2]): most profound and longest-lasting c-peptide lowering effect; glucose lowering effect / biopotency measured in ICR mice (ICR mice [3]): most active |
| insulin analog 3: A-chain SEQ ID NO: 3 (A14 Gla), B-chain SEQ ID NO: 8 (B16 and B25 Pal, B28 Hyp); structure FIG. 1C | longer lasting decrease in glucose levels | maintained the level of c-peptide for a longer time |  | follow the order of their specific activities | IGF-1R activation (IGF-1R; FIG. 19, listed as 3): none of insulin analogs 1, 2, 3, and 4 showed IGF-1R activation; also recorded: lack of IGF-1R activation; magnitude of glucose lowering effect among analogs tested (Sprague-Dawley (SD) rats [1]; [7]): most profound glucose lowering effect |
| insulin analog 4: A-chain SEQ ID NO: 3 (A14 Gla), B-chain SEQ ID NO: 10 (B16 and B25 Pal, B28 Pip); structure FIG. 1D | longer lasting decrease in glucose levels | maintained the level of c-peptide for a longer time | lower rate of body weight increase | follow the order of their specific activities | IGF-1R activation (IGF-1R; FIG. 19, listed as 4): none of insulin analogs 1, 2, 3, and 4 showed IGF-1R activation; also recorded: lack of IGF-1R activation |
| insulin reference standard: insulin reference standard (27.2 IU/mg) of chapter <1211> of Chinese Pharmacopeia biopotency test |  |  |  |  | potency of insulin reference standard (ICR mice [6]): 27.2 IU/mg |
